Test results reported in patent US8383637B2, “2-amino-quinazoline derivatives useful as inhibitors of β-secretase (BACE)” (Jansssen Pharmaceutica N.V., priority 2004, dated 2013).
“And” between values parts separate entries of the source, which are not always exact repeats. Equal entries are not always repeated.

Assays:
Format in all cases: biochemical
β-secretase(BACE) [1] = molecular target: T1, β-secretase(BACE) (Homo sapiens, UniProt P56817); test: BACE Assay-1 (MCA-substrate, IC50); conditions: procedure of Example 158; read-out: IC50 μM (158)
T1 construct: purchased Panvera
T1 sequence (P56817 46-501): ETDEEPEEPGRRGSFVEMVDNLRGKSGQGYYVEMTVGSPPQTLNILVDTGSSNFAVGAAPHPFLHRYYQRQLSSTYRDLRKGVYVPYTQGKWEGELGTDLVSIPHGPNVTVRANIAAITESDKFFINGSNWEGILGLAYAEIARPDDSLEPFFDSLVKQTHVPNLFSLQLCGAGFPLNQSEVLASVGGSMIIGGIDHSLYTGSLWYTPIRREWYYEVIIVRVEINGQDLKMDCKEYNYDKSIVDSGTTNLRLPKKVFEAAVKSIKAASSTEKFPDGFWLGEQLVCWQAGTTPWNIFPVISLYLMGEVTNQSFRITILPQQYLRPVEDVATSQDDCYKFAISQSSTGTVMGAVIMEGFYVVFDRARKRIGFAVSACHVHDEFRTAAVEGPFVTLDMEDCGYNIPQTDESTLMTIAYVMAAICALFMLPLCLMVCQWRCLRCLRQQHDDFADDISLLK
In short: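 Human BACE (work solution 10 μg/mL) with MCA-peptide substrate (stock 2.0 mg/mL) in 0.05 M citrate buffer, pH 5.0, with PEG8000. Fluorescence read at T0 and T60; compounds tested at multiple concentrations and IC50 calculated from these readings.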

β-secretase(BACE) [2] = molecular target: T1, β-secretase(BACE); test: BACE % Inhibition Assay ((Aedens)-[…]-(Dabcyl K-amide) substrate); conditions: % error ±10%; for inhibition at 3 µM / inhibition at 10 µM: read-out: % Inhibition; for inhibition at 0.3 µM: 0.3 μM test compound; for inhibition at 1 µM: 1 μM test compound
Procedure: The substrate stock solution was prepared in DMSO as a 10 mg/mL solution. The substrate working solution was prepared by diluting the 10 mg/mL stock solution with substrate assay buffer to a final concentration of 300 μg/mL. The β-secretase (BACE) working solution was prepared by diluting a 0.83 mg/mL BACE stock solution with enzyme assay buffer to a final concentration of 4 μg/mL.
Test compounds were dissolved in DMSO to 10 mM.
The screening procedure for this assay was as follows: 15 μL of BACE working solution was pipetted into each well of a 96-well plate. To each well was then pipetted 2 μL of test compound at the selected concentration. Test compound and BACE were then mixed with a pipettor and incubated for 20 min at room temperature. To each well was then added 10 μL of the substrate working solution. The plates were then incubated for 1 hour at room temperature.
The procedure for the blank was as follows. 15 μL of assay buffer was pipetted into each well to be used as a blank control. To each well was then added 2 μL of vehicle and 10 μL of substrate working solution. The plates were then incubated for 1 hour at room temperature.
The procedure for the positive control was as follows: 15 μl of BACE working solution was pipetted into each well to be used as a positive control. To each well was then pipetted 2 μL of vehicle. Vehicle and BACE were then mixed with a pipettor and incubated for 20 min at room temperature. To each well was then added 10 μL of the substrate working solution. The plates were then incubated for 1 hour at room temperature.
For test compounds, % inhibition was determined at each concentration as follows: […]

β-secretase(BACE) [3] = molecular target: T1, β-secretase(BACE); test: BACE Assay-2 (FS1 substrate, IC50 and Ki); conditions: procedure of Example 159, FS1 substrate; for Ki: read-out: Ki μM (159)

| Compound | IC50 (β-secretase(BACE) [1]) [µM] | inhibition at 3 µM (β-secretase(BACE) [2]; 3 μM test compound) [%] | inhibition at 10 µM (β-secretase(BACE) [2]; 10 μM test compound) [%] | IC50 (β-secretase(BACE) [3]) [µM] | Ki (β-secretase(BACE) [3]) | inhibition at 0.3 µM (β-secretase(BACE) [2]) [%] | inhibition at 1 µM (β-secretase(BACE) [2]) [%] | % Inhibition (β-secretase(BACE) [2]; 3 μM test compound) [%] | % Inhibition (β-secretase(BACE) [2]; 10 μM test compound) [%] | % Inhibition (β-secretase(BACE) [2]; 3 μM test compound, 3 µM) |
| --- | --- | --- | --- | --- | --- | --- | --- | --- | --- | --- |
| NC1=Nc2ccc(Oc3ccccc3)cc2CN1CCCNC(=O)C1CCCCC1 [Compound 108] | 0.32 | 73 | 90 | 0.954 | 0.076 µM | – | – | – | – | – |
| NC1=Nc2ccc(C(=O)c3ccccc3)cc2CN1CCCCNC(=O)C1CCCCC1 [Compound 30] | 11 | 32 | 48 | 20 | 2.3 µM | – | – | – | – | – |
| CCCC(CNC(=O)C1CCCCC1)N1Cc2cc(Oc3ccccc3)ccc2N=C1N (centres unmarked) [Compound 343] | 0.041 | 118 | – | – | 0.065 µM | 81 | 101 | – | – | – |
| NC1=Nc2ccc(C(=O)c3ccccc3)cc2CN1CCCCC(=O)N(C1CCCCC1)C1CCCCC1 [Compound 46] | 0.6 | 66 | 82 | 2.1 | 0.6 µM | – | – | – | – | – |
| CC(C)CC(=O)NCC(C1CCCCC1)N1Cc2cc(Oc3ccccc3)ccc2N=C1N (centres unmarked) [Compound 389] | – | 120 | – | – | 0.028 µM | 85 | 112 | – | – | – |
| CC(C)(C)OC(=O)NCC(C1CCCCC1)N1Cc2cc(Oc3ccccc3)ccc2N=C1N (centres unmarked) [Compound 367] | – | 111 | – | – | 0.12 µM | < 30 | 80 | – | – | – |
| CCCC(CNC(=O)OC(C)(C)C)N1Cc2cc(Oc3ccccc3)ccc2N=C1N (centres unmarked) [Compound 318] | 0.25 | 103 | – | – | 0.19 µM | 32 | 70 | – | – | – |
| CN(Cc1cccc2ccccc12)C(=O)CCCCN1Cc2cc(C(=O)c3ccccc3)ccc2N=C1N [Compound 51] | 2.2 | < 30 | 56 | 13 | 1.2 µM | – | – | – | – | – |
| NC1=Nc2ccc(Oc3ccccc3)cc2CN1C(CCNC(=O)CC1CCCC1)C1CCCCC1 (centres unmarked) [Compound 393] | 0.15 | 113 | – | – | 0.29 µM | < 30 | 52 | – | – | – |
| NC1=Nc2ccc(Oc3ccccc3)cc2CN1C(CCNC(=O)C1CCCCC1)C1CCCCC1 (centres unmarked) [Compound 391] | 0.054 | 115 | – | – | 0.1 µM | 35 | 93 | – | – | – |
| NC1=Nc2ccc(Oc3ccccc3)cc2CN1C(CCNC(=O)C1CCCC1)C1CCCCC1 (centres unmarked) [Compound 392] | 0.093 | 120 | – | – | 0.16 µM | 75 | 116 | – | – | – |
| CC(C)(C)OC(=O)NCCCN1Cc2cc(Oc3ccccc3)ccc2N=C1N [Compound 103] | – | 56 | 74 | 3.6 | 4 µM | – | – | – | – | – |
| CN(CCc1ccccc1)C(=O)CCCCN1Cc2cc(C(=O)c3ccccc3)ccc2N=C1N [Compound 50] | 1 | < 30 | 34 | 11 | 0.53 µM | – | – | – | – | – |
| NC1=Nc2ccc(Oc3ccccc3)cc2CN1C(CNC(=O)c1ccccc1)C1CCCCC1 (centres unmarked) [Compound 319] | 0.053 | 120 | – | – | 0.074 µM | 61 | 95 | – | – | – |
| CCCN1Cc2cc(Oc3cccc(NC(=O)OCc4ccccc4)c3)ccc2N=C1N [Compound 67] | 0.68 | 44 | 71 | 3.9 | 0.81 µM | – | – | – | – | – |
| CCCN1Cc2cc(Oc3cccc(N(C(=O)OCc4ccccc4)C4CCCCC4)c3)ccc2N=C1N [Compound 49] | 0.8 | 56 | 90 | 2.8 | 0.84 µM | – | – | – | – | – |
| NC1=Nc2ccc(Oc3ccccc3)cc2CN1CCCCC(=O)N(C1CCCCC1)C1CCCCC1 [Compound 19] | 0.18 | 67 | 92 | 1.6 | 0.38 µM | – | – | – | – | – |

| Compound | IC50 (β-secretase(BACE) [1]) [µM] | inhibition at 3 µM (β-secretase(BACE) [2]; 3 μM test compound) [%] | inhibition at 10 µM (β-secretase(BACE) [2]; 10 μM test compound) [%] | IC50 (β-secretase(BACE) [3]) [µM] | Ki (β-secretase(BACE) [3]) | inhibition at 0.3 µM (β-secretase(BACE) [2]) [%] | inhibition at 1 µM (β-secretase(BACE) [2]) [%] | % Inhibition (β-secretase(BACE) [2]; 3 μM test compound) [%] | % Inhibition (β-secretase(BACE) [2]; 10 μM test compound) [%] | % Inhibition (β-secretase(BACE) [2]; 3 μM test compound, 3 µM) |
| --- | --- | --- | --- | --- | --- | --- | --- | --- | --- | --- |
| 3-(2-Amino-6-phenoxy-4H-quinazolin-3-yl)-pentanedioic acid bis-(cyclohexyl-methyl-amide) [Compound 107] | 0.82 | – | – | 4.58 | 1.2 µM | – | – | 48 | 78 | – |
| CN(CCCN1Cc2cc(C(=O)c3ccccc3)ccc2N=C1N)C1CCCCC1 [Compound 15, {2-Amino-3-[3-(cyclohexyl-methyl-amino)-propyl]-3,4-dihydro-quinazolin-6-yl}-phenyl-methanone] | 2.3 | 42 | 69 | – | 4 µM | – | – | – | – | – |
| NC1=Nc2ccc(C(=O)c3ccccc3)cc2CN1CCNC(=O)C1CCCCC1 [Compound 7, Cyclohexanecarboxylic acid [2-(2-amino-6-benzoyl-4H-quinazolin-3-yl)-ethyl]-amide] | 1.4 | 76 | 87 | 5.3 | 0.24 µM | – | – | – | – | – |
| CCCN1Cc2cc(Oc3cccc(NCC4CCCCC4)c3)ccc2N=C1N [Compound 55] | 0.28 | 62 | 95 | 2.4 | 0.79 µM | – | – | – | – | – |
| CN(C(=O)c1cc(CN2Cc3cc(Oc4ccccc4)ccc3N=C2N)ccn1)C1CCCCC1 [Compound 89] | – | 77 | 81 | 0.4 | – | – | – | – | – | – |
| NC1=Nc2ccc(Oc3ccccc3)cc2CN1CCNC(=O)C1CCCC1 [Compound 112] | 0.12 | 88 | 92 | – | 0.59 µM | – | – | – | – | – |
| NC1=Nc2ccc(Oc3ccccc3)cc2CN1C(CNC(=O)C1CCCCC1)c1ccccc1 (centres unmarked) [Compound 342] | 0.082 | 119 | – | – | 0.19 µM | 50 | 93 | – | – | – |
| CN(C(=O)CCN1Cc2cc(Oc3ccccc3)ccc2N=C1N)C1CCCCC1 [Compound 20, 3-(2-Amino-6-phenoxy-4H-quinazolin-3-yl)-N-cyclohexyl-N-methyl-propionamide] | 0.48 | 68 | 83 | 2.1 | 0.34 µM | – | – | – | – | – |
| CCCN1Cc2cc(Oc3cccc(NC4CCCCC4)c3)ccc2N=C1N [Compound 53] | 1 | 34 | 82 | 6.8 | 0.82 µM | – | – | – | – | – |
| CCCN1Cc2cc(Oc3cccc(NS(=O)(=O)c4ccccc4)c3)ccc2N=C1N [Compound 61] | 0.2 | 75 | 87 | 0.44 | 0.23 µM | – | – | – | – | – |
| CN(CCN1Cc2cc(C(=O)c3ccccc3)ccc2N=C1N)C(=O)C1CCCCC1 [Compound 23] | 4.9 | 47 | 76 | 10 | 1.1 µM | – | – | – | – | – |
| CN(C(=O)CCC(CCC(=O)N(C)C1CCCCC1)N1Cc2cc(Oc3ccccc3)ccc2N=C1N)C1CCCCC1 [Compound 84, 4-(2-Amino-6-phenoxy-4H-quinazolin-3-yl)-heptanedioic acid bis-(cyclohexyl-methyl-amide)] | 0.47 | 38 | 63 | 3.1 | 0.76 µM | – | – | – | – | – |
| CC(C)(C)OC(=O)NCCCCN1Cc2cc(Oc3ccccc3)ccc2N=C1N [Compound 101] | – | 45 | 64 | 11 | – | – | – | – | – | – |
| CC(C)(C)OC(=O)NCCN1Cc2cc(Oc3ccccc3)ccc2N=C1N [Compound 80] | 0.11 | 61 | 80 | 0.94 | 0.12 µM | – | – | – | – | – |
| CN(C(=O)CCCCN1Cc2cc(C(=O)c3ccccc3)ccc2N=C1N)C1CCCCC1 [Compound 27] | 1.2 | 63 | 81 | 3 | 0.66 µM | – | – | – | – | – |
| NC1=Nc2ccc(Oc3ccccc3)cc2CN1CCNC(=O)C1CCCCC1 [Compound 111, Cyclohexanecarboxylic acid [2-(2-amino-6-phenoxy-4H-quinazolin-3-yl)-ethyl]-amide] | 0.1 | – | 94 | – | 0.082 µM and 0.067 µM | 63 | 96 | – | – | 84% and 115% |
| NC1=Nc2ccc(Oc3ccccc3)cc2CN1CCC(=O)NC12CC3CC(CC(C3)C1)C2 [Compound 365] | – | 113 | – | – | 0.1 µM | < 30 | 86 | – | – | – |
